PMC11679724, “Novel Quinoline- and Naphthalene-Incorporated Hydrazineylidene–Propenamide Analogues as Antidiabetic Agents: Design, Synthesis, and Computational Studies” (Pharmaceuticals, 2024)
pIC50: −log10 of the molar value.

Legend:
[1] = molecular target: human recombinant aldose reductase (Homo sapiens, UniProt P15121); assay: In vitro aldose reductase inhibition assay (DL-glyceraldehyde substrate); format: biochemical; settings: for pIC50: mean ± SE, DL-glyceraldehyde 5 mM
Experimental: (§1) Porcine pancreatic amylase, yeast α-glucosidase, and human recombinant aldose reductase were tested for enzyme inhibition using various substrates, such as starch (1%), pNPG (0.5 mM), and DL-glyceraldehyde (5 mM) for each enzyme. By comparing changes in the test sample absorbance levels to control values and computing inhibition percentages using the following formula, the degree of inhibition was ascertained: Inhibition (%) = [A×(control)] − [{A × (sample)}/{A × (control)} × 100].

[2] = molecular target: T1, Porcine pancreatic amylase (Sus scrofa, UniProt P00690); assay: In vitro α-amylase inhibition assay (starch substrate); format: biochemical; settings: mean ± SE; starch 1%
T1 sequence (P00690 16-511): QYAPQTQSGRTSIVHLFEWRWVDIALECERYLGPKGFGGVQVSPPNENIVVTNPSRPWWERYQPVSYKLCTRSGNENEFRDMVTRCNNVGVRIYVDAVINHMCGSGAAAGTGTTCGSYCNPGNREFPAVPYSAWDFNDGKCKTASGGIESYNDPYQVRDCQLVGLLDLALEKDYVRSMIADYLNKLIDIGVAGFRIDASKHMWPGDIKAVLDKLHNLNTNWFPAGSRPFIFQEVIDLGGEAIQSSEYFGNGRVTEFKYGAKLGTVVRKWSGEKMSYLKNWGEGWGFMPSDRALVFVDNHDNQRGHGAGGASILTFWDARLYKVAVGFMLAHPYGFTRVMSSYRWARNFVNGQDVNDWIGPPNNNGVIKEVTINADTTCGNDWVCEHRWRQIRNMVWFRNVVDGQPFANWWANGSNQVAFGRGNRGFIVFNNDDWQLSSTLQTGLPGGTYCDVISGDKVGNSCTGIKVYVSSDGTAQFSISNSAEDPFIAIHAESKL
Experimental: as §1

[3] = test system: α-glucosidase (PDB ID: 3A4A); design: method as in doi:10.3390/separations9090262, PMID 35335251; settings: docking of previous study; cited from earlier work
[4] = test system: α-amylase (PDB-ID 1DHK); design: method as in doi:10.3390/separations9090262, PMID 35335251; settings: docking of previous study; cited from earlier work
[5] = test system: aldose reductase (PDB ID: 1IEI); design: method as in doi:10.3390/separations9090262, PMID 35335251; settings: docking of previous study; cited from earlier work

| Structure (SMILES) | pIC50 [1] | pIC50 [2] | IC50 ([1]; µg/mL value restated in µM) | binding affinity against α-glucosidase [3] | binding affinity against α-amylase [4] | binding affinity against aldose reductase [5] |
| --- | --- | --- | --- | --- | --- | --- |
| CS/C(Nc1ccccc1)=C(\C#N)C(=O)Nc1ccc(C(N)=O)cc1 [Compound 5a] | 4.15 | 4.03 |  |  |  |  |
| CCNC(=NNC(=O)COc1ccc2ccccc2c1)C(C#N)C(=O)Nc1ccc(C(N)=O)cc1 (centres unmarked) [Compound 7c, 4-(2-cyano-3-(ethylamino)-3-(2-(2-(naphthalen-2-yloxy)acetyl)hydrazineylidene)propanamido)benzamide] | 4.29 | 4.24 |  |  |  |  |
| CC(=O)c1ccc(NC(=O)C(C#N)/C(=N/NC(=O)COc2ccnc3ccccc23)Nc2ccccc2)cc1 (centres unmarked) [Compound 7e, N-(4-acetylphenyl)-2-cyano-3-(phenylamino)-3-(2-(2-(quinolin-4-yloxy)acetyl) hydrazineylidene)propenamide] | 4.37 | 4.42 |  |  |  |  |
| CCN/C(=N\NC(=O)COc1ccc2ccccc2c1)C(C#N)C(=O)Nc1ccc(C(C)=O)cc1 (centres unmarked) [Compound 7f, N-(4-acetylphenyl)-2-cyano-3-(ethylamino)-3-(2-(2-(naphthalen-2-yloxy)acetyl) hydrazineylidene)propenamide] | 4.37 | 4.21 |  |  |  |  |
| O=C(O)/C=C/c1ccc(O)c(O)c1 [caffeic acid] |  |  |  | -8.2 kcal/mol | -8.1 kcal/mol | -7.4 kcal/mol |

Second part, led by results:

| pIC50 [1] | pIC50 [2] | IC50 ([1]; µg/mL value restated in µM) | Structure (SMILES) | binding affinity against α-glucosidase [3] | binding affinity against α-amylase [4] | binding affinity against aldose reductase [5] |
| --- | --- | --- | --- | --- | --- | --- |
| 4.37 | 4.37 |  | N#CC(C(=O)Nc1ccc(C(N)=O)cc1)C(=NNC(=O)COc1ccc2ccccc2c1)Nc1ccccc1 (centres unmarked) [Compound 7a, 4-(2-cyano-3-(2-(2-(naphthalen-2-yloxy)acetyl)hydrazineylidene)-3-(phenylamino)propanamido)benzamide] |  |  |  |
| 4.39 | 4.43 |  | N#CC(C(=O)Nc1ccc(C(N)=O)cc1)C(=NNC(=O)COc1ccnc2ccccc12)Nc1ccccc1 (centres unmarked) [Compound 7b, 4-(2-cyano-3-(phenylamino)-3-(2-(2-(quinolin-4-yloxy)acetyl)hydrazineylidene)propanamido)benzamide] |  |  |  |
| 4.47 | 4.34 |  | CC(=O)c1ccc(NC(=O)C(C#N)/C(=N/NC(=O)COc2ccc3ccccc3c2)Nc2ccccc2)cc1 (centres unmarked) [Compound 7d, N-(4-acetylphenyl)-2-cyano-3-(2-(2-(naphthalen-2-yloxy)acetyl)hydrazineylidene)-3-(phenylamino)propenamide] |  |  |  |
| 4.59 | 4.44 | 25.8 µM | CCN/C(=N\NC(=O)COc1ccnc2ccccc12)C(C#N)C(=O)Nc1ccc(C(C)=O)cc1 (centres unmarked) [Compound 7g, N-(4-acetylphenyl)-2-cyano-3-(ethylamino)-3-(2-(2-(quinolin-4-yloxy)acetyl) hydrazineylidene)propenamide] |  |  |  |
